# Test system: HCV
# Assay: HCV viral kinetic population model (nonlinear mixed effects) fitted to long-term viral load profiles of 2100 CHC patients
# Type: in vivo, human (patients)
# Source text: In an embodiment, a population model may account for the ribavirin effect, the natural turnover and proliferation of hepatocytes, and the viral eradication.
# In this example, liver physiological/patho-physiology characteristics are incorporated into model 400, such as hepatocyte cell maturation (source s), death rate (death d), maximal liver size (Tmax). Model 400 can be parameterization in terms of a reproductive ratio (RR0) rather than cell infectivity (infection β). A “cure” boundary condition can be provided when a number of infected cells is predicted to be <=1.
# HCV viral kinetic model 400 is extended with a density dependent proliferation of hepatocytes [r].
# Infectious HCV virions (VI) infect target cells (uninfected hepatocytes) [T] creating productively infected cells (I) at a rate β·V1·T. Uninfected hepatocytes are produced at rate s and die at rate d. Infected hepatocytes die at rate δ. Infectious (VI) and non-infectious (VNI) virions are produced at rate p and cleared at rate c. The measured viral load (V) can be expressed in IU/mL, representing the sum of infectious and non-infectious virions V=VI+VN.
# Continuing the example, DoseRBV is the daily dose of ribavirin per kg body weight and ED50RRV is the estimated daily dose in mg/kg rendering 40% of the virions non-infectious. […]
structure (smiles),measurement,setting,value
NC(=O)c1ncn([C@@H]2O[C@H](CO)[C@@H](O)[C@H]2O)n1 [ribavirin],ED50RBV (estimated daily dose rendering virions non-infectious),"population estimate, daily dose per kg body weight",14.4 mg˜kg^−1·day^−1
same,Fraction of the virions rendered non-infectious,standard ribavirin treatment of 1000/1200 mg per day,40-60%

# Reference: US20100280986A1, “SYSTEMS AND METHODS FOR TAILORING ACUTE AND CHRONIC VIRAL INFECTION […] INCREASE THE P[…] "CURE" FOR A GIVEN SUBJECT” (Roche Palo Alto, priority 2009, published 2010)
